In data set [1] the test system is Staphylococcus aureus. In words: Antibacterial activity against methicillin-resistant Staphylococcus aureus USA300 assessed as bacterial growth inhibition measured by two-fold serial microdilution method. The data set is classed as functional. (Dilution methods test growth across graded concentrations, often in twofold steps.)
In data set [2] the test system is Staphylococcus aureus. In words: Antibacterial activity against methicillin-resistant Staphylococcus aureus USA300 infected in Caenorhabditis elegans N2 worms assessed as worms survival at 5 ug/ml measured after 4 days. Particulars: dose 5 µg/ml; time 4 day. The data set is classed as functional.
Data set [3] relates to Staphylococcus aureus. In words: Antibacterial activity against methicillin-resistant Staphylococcus aureus USA300 infected in Caenorhabditis elegans N2 worms assessed as worms survival at 25 ug/ml measured after 4 days. The data set is classed as functional. Particulars: dose 25 µg/ml; time 4 day.
Data set [4] deals with Staphylococcus aureus. The data set can be described thus: Antibacterial activity against methicillin-resistant Staphylococcus aureus USA300 assessed as bacterial growth inhibition in CAMH medium measured by two-fold serial microdilution method. The data set is classed as functional.
In data set [5] the target is T1, 1,4-dihydroxy-2-naphthoate octaprenyltransferase (Mycobacterium tuberculosis, UniProt P9WIP3).
T1 sequence (P9WIP3 whole entry): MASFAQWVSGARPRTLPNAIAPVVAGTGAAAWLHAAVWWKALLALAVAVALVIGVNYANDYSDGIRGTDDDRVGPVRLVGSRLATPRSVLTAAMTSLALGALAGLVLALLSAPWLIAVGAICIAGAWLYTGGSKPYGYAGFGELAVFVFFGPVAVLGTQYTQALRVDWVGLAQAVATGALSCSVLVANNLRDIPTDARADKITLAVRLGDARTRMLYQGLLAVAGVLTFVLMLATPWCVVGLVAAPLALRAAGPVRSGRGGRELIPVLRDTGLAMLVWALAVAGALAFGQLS
The data set can be described thus: Competitive inhibition of Mycobacterium tuberculosis H37Rv membrane MenA using DHNA as a substrate in presence of [1-3H]FPP or [1-3H]GGPP. The data set is classed as cell membranes.

Data set [6] relates to Mycobacterium tuberculosis. In words: Antitubercular activity against Mycobacterium tuberculosis H37Rv. The data set is classed as functional.
The test system of data set [7] is Mycobacterium tuberculosis. In words: Antitubercular activity against Mycobacterium tuberculosis H37Ra assessed as bacterial growth inhibition in the presence of 7H10/OADC medium. The data set is classed as functional.
Data set [8] concerns the target T1, 1,4-dihydroxy-2-naphthoate octaprenyltransferase. The data set can be described thus: Inhibition of Mycobacterium tuberculosis MenA.
Data set [9] relates to Staphylococcus aureus. In words: Bactericidal activity against methicillin-resistant Staphylococcus aureus USA300 assessed as log10 reduction in microbial growth at 8 ug/ml in presence of menaquinone, MK4 measured after 8 hrs by time kill assay curve based analysis. The data set is classed as functional. The following applies: dose 8 µg/ml.
For data set [10], the system named is Staphylococcus aureus. The data set can be described thus: Bactericidal activity against methicillin-resistant Staphylococcus aureus USA300 assessed as eradication in population size at 8 to 16 ug/ml measured after 2 hrs by time kill assay curve based analysis. The data set is classed as functional, organism-based. The following applies: dose 8-16 µg/ml.
Data set [11] relates to Staphylococcus aureus. In words: Antibacterial activity against methicillin-resistant Staphylococcus aureus USA300 assessed as bacterial growth inhibition at 8 ug/ml incubated for 24 hrs in presence 100 ug/ml of menaquinone, MK4 measured by two-fold serial microdilution method. The data set is classed as functional, organism-based. Particulars: dose 8.0 µg/ml.
For data set [12], the system named is Staphylococcus aureus. In words: Antibacterial activity against methicillin-resistant Staphylococcus aureus USA300 infected in Caenorhabditis elegans N2 worms assessed as worms killing at 25 ug/ml measured after 4 days. Particulars: dose 25 µg/ml; time 4 day. The data set is classed as functional.
Data set [13] relates to Staphylococcus aureus. In words: Antibacterial activity against methicillin-resistant Staphylococcus aureus USA300 infected in Caenorhabditis elegans N2 worms assessed as worms killing at 5 ug/ml measured after 4 days. The data set is classed as functional. The following applies: dose 5 µg/ml; time 4 day.
Data set [14] has as its system Staphylococcus aureus. In words: Bactericidal activity against methicillin-resistant Staphylococcus aureus USA300 at 16 ug/ml measured for 48 hrs in presence of menaquinone, MK4 by time kill assay curve based analysis. Particulars: dose 16 µg/ml. The data set is classed as functional.
The test system of data set [15] is Staphylococcus aureus. In words: Antibacterial activity against methicillin-resistant Staphylococcus aureus USA300 assessed as bacterial growth inhibition at 8 ug/ml measured by two-fold serial microdilution method. The data set is classed as functional, organism-based. Particulars: dose 8.0 µg/ml.
The nature of data set [16]: Toxicity in Balb/cJ mouse assessed as effect on lung inflammation at 10 mg/kg, INH administered for 4 days and measured on day 5 by H and E staining microscopic analysis. The data set is classed as organism-based. Particulars: in vivo, inhaled_or_intranasal, 120 h, time 5 day.
A short description of data set [17]: Drug uptake in Balb/cJ mouse lungs at 200 ug INH administered for 4 days and measured on day 5 by reverse-phase HPLC analysis. The data set is classed as ADME, tissue-based, Lung. Particulars: in vivo, 120 h, at 200 µg, time 5 day.
Data set [18] is described as follows: Toxicity in Balb/cJ mouse assessed as drug tolerability at 200 ug INH administered for 4 days. Particulars: in vivo, inhaled_or_intranasal, 96 h, at 200 µg, time 4 day.
Data set [19] in a line: Toxicity in Balb/cJ mouse assessed as effect on lung damage at 10 mg/kg, INH administered for 4 days and measured on day 5 by H and E staining microscopic analysis. Particulars: in vivo, inhaled_or_intranasal, 120 h, time 5 day. The data set is classed as organism-based.
Data set [20] is described as follows: Toxicity in Balb/cJ mouse assessed as body weight loss at 200 ug INH administered for 4 days and observed on day 5. The following applies: in vivo, inhaled_or_intranasal, 120 h, dose 200 µg, time 5 day.

SMILES strings stand for the structures. In brackets after ≈: the same amount, converted by molar mass. Activity calls are given as the source filed them. The rule behind the calls is not given here.

One may read the MIC as the least concentration at which growth counts as inhibited. As usually defined, the IC50 is the concentration that gives 50% inhibition.

Take `CC(C)=CCC/C(C)=C/CC/C(C)=C/CNC1CC1`: in [1], the MIC is 16 µg/mL (≈ 61.2 µM).
Take `Fc1ccc(CCNCCCOc2ccc3ccc(OCCCNCCc4ccc(F)cc4)cc3c2)cc1`: the Activity amounted to 71% in data set [2], 78% in data set [3] and 3 µg/mL in [4].
As for `CC(C)=CCC/C(C)=C/CC/C(C)=C/COC(=O)C(N)CC(=O)O` (stereo not given), in [5], the IC50 was 5.33 µM. In data set [6], the MIC was 12.5 µg/mL (≈ 37 µM).
On to `Fc1ccc(CCNCCCCCCCCNCCc2ccc(F)cc2)cc1`, for which the MIC in data set [1] came to 16 µg/mL (≈ 41.2 µM); in data set [7] it was 32 µg/mL.
For the compound `COc1ccc2ccc(OCCCCCCCCN3CCCCC3)cc2c1`, the Activity in data set [4] was determined as 16 µg/mL. Further, the IC50 in data set [8] was 13.5 µM.
With `CC(C)=CCC/C(C)=C/CNCCc1ccc(F)cc1`, in [1], the MIC came out at 32 µg/mL (≈ 116 µM).
In the case of `CC(C)=CCC/C(C)=C/CC/C(C)=C/CN1CCCCC1`, the values for the MIC in data set [1] and in data set [7] were 32 µg/mL (≈ 111 µM) and 8 µg/mL, respectively.
For `O=[N+]([O-])c1ccc(OCCCCCCCCNCCc2ccc(F)cc2)cc1` the same measures were 8 µg/mL (≈ 20.6 µM) and 16 µg/mL.
For `COc1ccc2ccc(OCCCOCC=C(C)C)cc2c1`, the MIC in [1] is above 256 µg/mL.
Still for that read-out and setting: then `CC(C)=CCC/C(C)=C/CN1CCCCC1`, with 64 µg/mL (≈ 289 µM); and `CC(C)=CCC/C(C)=C/CC/C(C)=C/CNC1CCCC1`, with 16 µg/mL (≈ 55.3 µM).
Still for that read-out and setting: then `CC(=O)NC[C@H]1CN(c2ccc(N3CCOCC3)c(F)c2)C(=O)O1` [LINEZOLID], with 1 µg/mL (≈ 2.96 µM); and `Fc1ccc(CNCCCCCCCCNCc2ccc(F)cc2)cc1`, with 64 µg/mL (≈ 178 µM).
As for `CC(C)=CCC/C(C)=C/CC/C(C)=C/CNCCc1ccc(F)cc1`, the Activity in data set [9] came to 3.5 log10CFU/ml; in data set [12] it was 100%; in [13], 83%; in data set [14], 100%. Further, the outcome in [10] and in data set [15] was Active. Besides, the result in [11] was inactive. The figures for the MIC in data set [1] and in data set [7] were 8 µg/mL (≈ 23.3 µM) and 4 µg/mL, respectively.
For the compound `O=[N+]([O-])c1ccc(OCCCCCCCCOc2ccc([N+](=O)[O-])cc2)cc1`, in [1], the MIC was 64 µg/mL (≈ 165 µM).
Regarding `CC(C)=CCC/C(C)=C/CNC1CC1`, the MIC in data set [1] and in data set [7] was above 128 µg/mL throughout.
Turning to `C=CCN(C)C/C=C(\C)CC/C=C(\C)CCC=C(C)C`, in data set [5], the IC50 was 20 µM. The same compound displayed an MIC in data set [6] of 6.1 µg/mL (≈ 22.1 µM).
As for `C=CCN(C)CCCCCCCCOc1ccc2ccc(OC)cc2c1`, the Activity result in data set [16] is “Non-Toxic”; in [18] it was 100%; in [19], “Non-Toxic”; in data set [20], “Non-Toxic”; in data set [4], 16 µg/mL. In [17], this compound gave a Drug uptake of 32.4%. Further, in data set [1], the result was Active. In data set [8], this compound gave an IC50 of 16.9 µM.
Take `CC(C)=CCC/C(C)=C/CNC1CCCC1`: the MIC was determined as 128 µg/mL (≈ 578 µM) in [1] and 64 µg/mL in data set [7].
Take `COc1ccc2ccc(OCCCCCCCCOCC=C(C)C)cc2c1`: the MIC in [1] was above 256 µg/mL.

Source of the values: ChEMBL document CHEMBL4819151, “Synthesis, optimization, in vitro and in vivo study of bicyclic substituted amine as MenA inhibitor” (Bioorg Med Chem Lett, 2021).
